Some test systems named below: TK-10; RPMI-8226; SN12C; Malme-3M; COLO 205; SK-MEL-2; ACHN; SK-MEL-28; HOP-62; SW-620; EKVX; HOP-92; OVCAR-3; MOLT-4; K562; NCI-H522.
Holding throughout (test): NCI-60 cell line screen, 48 h

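Following 48 hours of exposure in 96-well plates, responses at five concentrations were used to interpolate endpoints linearly. GI50 = concentration required for 50% inhibition of growth.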 The source made the active and inactive calls. No stated cut-off is given here; in the data, active = GI50 up to about 1.1 µM and inactive = higher.

For the compound `CSC1CC2C(CC1(C)O)C2(C)C` (stereo not drawn), the GI50 in the assay with TK-10, with RPMI-8226, in the assay on SN12C, with Malme-3M, in the assay on COLO 205 and in the assay on SK-MEL-2 was > 100 µM (inactive) each time. Moreover, the GI50 in the assay on ACHN, in the assay with SK-MEL-28, in the assay with HOP-62 and in the assay on SW-620 was > 100 µM (inactive) in each case.
In the case of `COc1cc([C@@H]2c3cc4c(cc3[C@@H](NC(=O)c3cccc([N+](=O)[O-])c3)C3COC(=O)[C@@H]32)OCO4)cc(OC)c1O` (stereo partly drawn), the GI50 in the assay with TK-10 was 2.25 µM (inactive); in the assay on EKVX it was 1.25 µM (inactive); in the assay with RPMI-8226, 0.452 µM (active); in the assay on SN12C it was 0.211 µM (active); in the assay on Malme-3M, 0.543 µM (active); with COLO 205, 4.66 µM (inactive). Also, the GI50 in the assay with HOP-92 was 0.63 µM (active); in the assay on SK-MEL-2, 2.77 µM (inactive); in the assay on OVCAR-3 it was 3.34 µM (inactive); in the assay on ACHN, 0.128 µM (active); with SK-MEL-28, 3.27 µM (inactive); in the assay on MOLT-4, 0.0145 µM (active). In addition, the GI50 is 0.0398 µM (active) with HOP-62, 2.2 µM (inactive) with K562 and 0.509 µM (active) with SW-620.
Turning to `Cc1ccccc1C(C#N)/C(=N/NC(N)=S)C(=O)Nc1c(C)cccc1C` (stereo not drawn), the GI50 is > 100 µM (inactive) in the assay on TK-10; > 100 µM (inactive) in the assay on EKVX; 9.12 µM (inactive) with RPMI-8226; > 100 µM (inactive) in the assay with SN12C; 83.8 µM (inactive) with Malme-3M; > 100 µM (inactive) with COLO 205. Also, the GI50 with HOP-92 was > 100 µM (inactive); with SK-MEL-2, > 100 µM (inactive); in the assay on OVCAR-3, > 100 µM (inactive); with ACHN it was > 100 µM (inactive); in the assay with SK-MEL-28 it was > 100 µM (inactive); in the assay with MOLT-4, 88.1 µM (inactive). In addition, the GI50 in the assay on HOP-62 and in the assay with SW-620 was > 100 µM (inactive) in each case.
With `COC(=O)C(C(=O)C(=O)Nc1cccc(O)c1)c1nc2ccc(Cl)cc2nc1O` (stereo not drawn), the GI50 with TK-10 was > 100 µM (inactive); in the assay with EKVX, 48.9 µM (inactive); with RPMI-8226, > 100 µM (inactive); in the assay on SN12C, > 100 µM (inactive); in the assay with Malme-3M, > 100 µM (inactive); with COLO 205, > 100 µM (inactive). For the same compound, the GI50 was 59 µM (inactive) in the assay on HOP-92; > 100 µM (inactive) in the assay with SK-MEL-2; > 100 µM (inactive) in the assay with OVCAR-3; > 100 µM (inactive) in the assay with ACHN; > 100 µM (inactive) in the assay on SK-MEL-28; > 100 µM (inactive) in the assay with MOLT-4. For the same compound, the GI50 in the assay on HOP-62, in the assay on K562 and in the assay on SW-620 was > 100 µM (inactive) each time.
As for `Cc1cc2c(=O)cc(-c3ccc(C(F)(F)F)cc3)oc2c(C(=O)O)c1C`, the GI50 with TK-10, in the assay with EKVX, in the assay on RPMI-8226, in the assay with SN12C, in the assay on Malme-3M and in the assay on COLO 205 was > 100 µM (inactive) throughout. The GI50 with SK-MEL-2, in the assay with OVCAR-3, in the assay on ACHN, in the assay on SK-MEL-28, with MOLT-4 and in the assay on NCI-H522 was > 100 µM (inactive) each time. Also, the GI50 with K562 and in the assay with SW-620 was > 100 µM (inactive) in each case.

The values are drawn from ChEMBL document CHEMBL1201862, “PubChem BioAssay data set” (2004).
